Data reported in patent US9254252B2, “Compounds” (DSM IP ASSETS B.V., priority 2011, dated 2016).

Assay: Solubility of resveratrol in trilaureth-4 phosphate, judged by visual observation of transparency
Assay type: physicochemical
Parameters: key to Solubility: +: partially; from + = partially to +++ = fully soluble; +++: fully soluble
Settings: for Solubility: 40° C.
Method: To evaluate solubility of resveratrol in trilaureth-4 phosphate, the following procedure was adopted: lab glass beakers of 250 ml capacity were filled with the phosphate ester surfactant in the range as indicated in Table 1. The final volume was 50 ml. Solubilization occurs almost instantaneously, however the beakers were vigorously shaken for about 1 minute at 6000 rpm. Level of solubility was judged by visual observation of transparency.

- threshold level of solubility (in trilaureth-4 phosphate): around 10%
- solubility in the emulsifier (in trilaureth-4 phosphate, room temperature): solubilizes well
- Solubility (resveratrol 2 wt.-% in trilaureth-4 phosphate 98 wt.-%): +++
- Solubility (resveratrol 4 wt.-% in trilaureth-4 phosphate 96 wt.-%): +++
- Solubility (resveratrol 6 wt.-% in trilaureth-4 phosphate 94 wt.-%): +++
- Solubility (resveratrol 8 wt.-% in trilaureth-4 phosphate 92 wt.-%): +++
- Solubility (resveratrol 10 wt.-% in trilaureth-4 phosphate 90 wt.-%): +++
- Solubility (resveratrol 12 wt.-% in trilaureth-4 phosphate 88 wt.-%): ++
Compound: Oc1ccc(/C=C/c2cc(O)cc(O)c2)cc1 [Resveratrol, 5-[(1E)-2-(4-hydroxyphenyl)ethenyl]-1,3-Benzenediol]
